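Tested at 5 concentrations; 48 h exposure; 96-well plates; endpoints linearly interpolated, else capped at highest concentration. GI50 is the concentration that inhibits growth by half.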 Calls of active or inactive are those of the source. No stated cut-off is given here; in the data, active = GI50 up to about 1.1 µM and inactive = higher.
Columns and labels:
Assay in all cases: inhibition of tumour cell growth, NCI panel, 48 h
DU-145 = tested on: DU-145
MDA-MB-435 = tested on: MDA-MB-435
SK-MEL-28 = tested on: SK-MEL-28
SR = tested on: SR
Malme-3M = tested on: Malme-3M
LOX IMVI = tested on: LOX IMVI
MDA-MB-231 = tested on: MDA-MB-231
SF-268 = tested on: SF-268
A549 = tested on: A549
UACC-62 = tested on: UACC-62
Hs-578T = tested on: Hs-578T
K562 = tested on: K562
NCI-H460 = tested on: NCI-H460
HOP-62 = tested on: HOP-62
COLO 205 = tested on: COLO 205
BT-549 = tested on: BT-549
HT-29 = tested on: HT-29
KM12 = tested on: KM12
A498 = tested on: A498
HCC 2998 = tested on: HCC 2998

Measured: GI50

COc1ccc(NCc2c(O)ccc3ccccc23)cc1
inactive: DU-145 76 µM | MDA-MB-435 42.9 µM | SK-MEL-28 27.4 µM | SR 17.1 µM | Malme-3M 20.7 µM | LOX IMVI 15.9 µM | MDA-MB-231 30 µM | SF-268 19.9 µM | A549 61.4 µM | UACC-62 8.09 µM | Hs-578T 60.5 µM | K562 10.7 µM | NCI-H460 49.9 µM | HOP-62 68.2 µM | COLO 205 22.8 µM | BT-549 18.6 µM | HT-29 21.6 µM | KM12 67.1 µM | A498 24.6 µM

Oc1ncc(Cl)c(O)n1
inactive: DU-145 > 100 µM | MDA-MB-435 > 100 µM | SK-MEL-28 > 100 µM | SR > 100 µM | Malme-3M > 100 µM | LOX IMVI > 100 µM | MDA-MB-231 > 100 µM | SF-268 > 100 µM | A549 > 100 µM | UACC-62 > 100 µM | Hs-578T > 100 µM | HCC 2998 > 100 µM | K562 > 100 µM | NCI-H460 > 100 µM | COLO 205 > 100 µM | BT-549 > 100 µM | HT-29 > 100 µM | KM12 > 100 µM | A498 > 100 µM

CCOC(=O)c1cc2c3c(c(C(C)=O)c(O)c2[nH]1)N(C(C)=O)CC3
inactive: DU-145 82.6 µM | MDA-MB-435 89.3 µM | SK-MEL-28 34.4 µM | SR 50.6 µM | Malme-3M 64.3 µM | LOX IMVI > 100 µM | MDA-MB-231 > 100 µM | SF-268 55.8 µM | UACC-62 81.3 µM | Hs-578T 51.9 µM | K562 26.9 µM | NCI-H460 > 100 µM | HOP-62 > 100 µM | COLO 205 63.2 µM | BT-549 52 µM | HT-29 > 100 µM | KM12 45.4 µM | A498 52.5 µM

COC(=O)c1c(O)ccc2c1c1c(n2Cc2cccc(C)c2)C(=O)c2ccccc2C1=O
inactive: DU-145 14.4 µM | MDA-MB-435 9.82 µM | SK-MEL-28 15.3 µM | SR 4.98 µM | Malme-3M 16.7 µM | LOX IMVI 11.7 µM | MDA-MB-231 16.1 µM | SF-268 12 µM | A549 6.97 µM | Hs-578T 12.4 µM | HCC 2998 2.7 µM | K562 8.91 µM | NCI-H460 4.29 µM | HOP-62 16.1 µM | COLO 205 1.67 µM | BT-549 15 µM | HT-29 4.07 µM | KM12 11 µM | A498 17.7 µM

NCCC1(N)CCNCC1
inactive: DU-145 > 100 µM | MDA-MB-435 > 100 µM | SK-MEL-28 48.4 µM | SR > 100 µM | Malme-3M > 100 µM | MDA-MB-231 > 100 µM | SF-268 > 100 µM | A549 > 100 µM | UACC-62 > 100 µM | Hs-578T > 100 µM | K562 > 100 µM | NCI-H460 > 100 µM | COLO 205 > 100 µM | BT-549 > 100 µM | HT-29 > 100 µM | KM12 > 100 µM | A498 > 100 µM

CC1=C(C(N)=O)C(c2ccncc2)C(C#N)=C2SCC(=O)N12 (stereo not drawn)
inactive: DU-145 > 100 µM | MDA-MB-435 > 100 µM | SK-MEL-28 > 100 µM | SR > 100 µM | Malme-3M > 100 µM | MDA-MB-231 > 100 µM | SF-268 > 100 µM | A549 > 100 µM | UACC-62 > 100 µM | Hs-578T > 100 µM | K562 > 100 µM | NCI-H460 > 100 µM | HOP-62 > 100 µM | COLO 205 > 100 µM | BT-549 > 100 µM | HT-29 > 100 µM | KM12 > 100 µM | A498 > 100 µM

CC(=N/N=C/c1ccccn1)/C(C)=N/N=C(C)/C(C)=N/N=C(C)/C(C)=N/N=C(C)/C(C)=N\N=C\c1ccccn1
inactive: DU-145 > 100 µM | MDA-MB-435 > 100 µM | SK-MEL-28 > 100 µM | SR > 100 µM | Malme-3M > 100 µM | LOX IMVI > 100 µM | MDA-MB-231 > 100 µM | SF-268 > 100 µM | A549 > 100 µM | Hs-578T > 100 µM | HCC 2998 > 100 µM | K562 > 100 µM | NCI-H460 > 100 µM | HOP-62 > 100 µM | COLO 205 > 100 µM | BT-549 > 100 µM | HT-29 > 100 µM | KM12 > 100 µM | A498 > 100 µM

c1ccc(-c2cc(-c3cccs3)c(-c3cccs3)o2)cc1
inactive: DU-145 > 100 µM | MDA-MB-435 > 100 µM | SK-MEL-28 > 100 µM | SR > 100 µM | LOX IMVI > 100 µM | MDA-MB-231 > 100 µM | SF-268 > 100 µM | A549 > 100 µM | UACC-62 > 100 µM | Hs-578T > 100 µM | HCC 2998 > 100 µM | K562 > 100 µM | NCI-H460 > 100 µM | HOP-62 > 100 µM | COLO 205 > 100 µM | BT-549 > 100 µM | HT-29 > 100 µM | KM12 48.4 µM | A498 > 100 µM

Cc1ccc(NC(=O)CC(=O)N2N=C(c3ccccc3)C(/N=N/c3ccc(S(=O)(=O)CCOS(=O)(=O)O)cc3)C2=O)cc1 (stereo not drawn)
inactive: DU-145 > 100 µM | MDA-MB-435 > 100 µM | SK-MEL-28 > 100 µM | SR > 100 µM | Malme-3M > 100 µM | LOX IMVI > 100 µM | MDA-MB-231 > 100 µM | SF-268 > 100 µM | A549 > 100 µM | Hs-578T 29.2 µM | HCC 2998 > 100 µM | K562 > 100 µM | NCI-H460 > 100 µM | HOP-62 77.6 µM | COLO 205 > 100 µM | BT-549 > 100 µM | HT-29 > 100 µM | KM12 86.3 µM | A498 > 100 µM

CSc1nncc2[nH]cnc12
inactive: DU-145 > 100 µM | MDA-MB-435 > 100 µM | SK-MEL-28 > 100 µM | SR > 100 µM | MDA-MB-231 > 100 µM | SF-268 > 100 µM | A549 > 100 µM | UACC-62 > 100 µM | Hs-578T > 100 µM | K562 > 100 µM | NCI-H460 > 100 µM | HOP-62 > 100 µM | COLO 205 > 100 µM | BT-549 > 100 µM | HT-29 > 100 µM | KM12 > 100 µM | A498 > 100 µM

O=C(/C=C1\Sc2ccccc2N=C1CC(=O)c1ccccc1)c1ccccc1
inactive: DU-145 6.65 µM | MDA-MB-435 6.52 µM | SK-MEL-28 8.89 µM | SR 1.4 µM | Malme-3M 3.25 µM | LOX IMVI 3 µM | MDA-MB-231 6 µM | SF-268 6.4 µM | A549 5.33 µM | Hs-578T 44.7 µM | HCC 2998 10.1 µM | K562 3.79 µM | NCI-H460 3.89 µM | HOP-62 2.32 µM | COLO 205 10.3 µM | BT-549 8.13 µM | HT-29 8.49 µM | KM12 4.76 µM | A498 31.8 µM

Reference: ChEMBL document CHEMBL1201862, “PubChem BioAssay data set” (2004)
